# Laboratory results as given in PubChem BioAssay AID256 (DTP/NCI, 2004).
# Where “and” joins values, the source holds several entries; their conditions need not be identical. Equal values may be shown once. Inconclusive results and toxic doses are left out.
# System: CD2F1 mice, L1210 leukemia ip, survival T/C
# Assay: NCI In Vivo Anticancer Drug Screen. Data for tumor model L1210 Leukemia (intraperitoneal) in CD2F1 (CDF1) mice
# Conditions: higher = longer survival
# Outline: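 Ratio T/C, where T is the treated-group value and C the vehicle-dosed control value, from mice implanted with a transplantable tumor.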
# [1] = endpoint: mean survival time, dose: 100.0 mg/kg/injection, schedule: Q04DX003 (ip), vehicle: saline with Tween-80
# [2] = endpoint: mean survival time, dose: 200.0 mg/kg/injection, schedule: Q04DX003 (ip), vehicle: saline with Tween-80
# [3] = endpoint: mean survival time, dose: 100.0 mg/kg/injection, schedule: Q01DX009 (ip), vehicle: saline with Tween-80
# [4] = endpoint: mean survival time, dose: 200.0 mg/kg/injection, schedule: Q01DX009 (ip), vehicle: saline with Tween-80
# [5] = endpoint: mean survival time, dose: 400.0 mg/kg/injection, schedule: Q01DX009 (ip), vehicle: saline with Tween-80
# [6] = endpoint: mean survival time, dose: 400.0 mg/kg/injection, schedule: Q04DX003 (ip), vehicle: saline with Tween-80
# [7] = endpoint: mean survival time, dose: 100.0 mg/kg/injection, schedule: Q01DX001 (ip), vehicle: saline with Tween-80
# [8] = endpoint: mean survival time, dose: 200.0 mg/kg/injection, schedule: Q01DX001 (ip), vehicle: saline with Tween-80
# [9] = endpoint: mean survival time, dose: 400.0 mg/kg/injection, schedule: Q01DX001 (ip), vehicle: saline with Tween-80
# [10] = endpoint: mean survival time, dose: 100.0 mg/kg/injection, schedule: Q01DX001 (ip), vehicle: carboxymethylcellulose (CMC)
# [11] = endpoint: mean survival time, dose: 200.0 mg/kg/injection, schedule: Q01DX001 (ip), vehicle: carboxymethylcellulose (CMC)
# [12] = endpoint: mean survival time, dose: 400.0 mg/kg/injection, schedule: Q01DX001 (ip), vehicle: carboxymethylcellulose (CMC)
smiles,measurement,setting,value
CC(=O)NC1=C(N2CC2)C(=O)C(NC(C)=O)=C(N2CC2)C1=O,T/C,"endpoint: mean survival time, dose: 0.5 mg/kg/injection, schedule: Q01DX009 (ip), vehicle: saline",164 % of control and 181 % of control
same,T/C,"endpoint: mean survival time, dose: 1.0 mg/kg/injection, schedule: Q01DX007 (ip), vehicle: saline",190 % of control
same,T/C,"endpoint: mean survival time, dose: 1.0 mg/kg/injection, schedule: Q01DX009 (ip), vehicle: saline",213 % of control and 230 % of control and 261 % of control
same,T/C,"endpoint: mean survival time, dose: 1.0 mg/kg/injection, schedule: Q03DX003 (ip), vehicle: saline",162 % of control
same,T/C,"endpoint: mean survival time, dose: 2.0 mg/kg/injection, schedule: Q01DX007 (ip), vehicle: saline",105 % of control
same,T/C,"endpoint: mean survival time, dose: 2.0 mg/kg/injection, schedule: Q01DX009 (ip), vehicle: saline",253 % of control and 100 % of control and 101 % of control
same,T/C,"endpoint: mean survival time, dose: 2.0 mg/kg/injection, schedule: Q03DX003 (ip), vehicle: saline",198 % of control
same,T/C,"endpoint: mean survival time, dose: 2.0 mg/kg/injection, schedule: Q04DX003 (ip), vehicle: saline",191 % of control
same,T/C,"endpoint: mean survival time, dose: 4.0 mg/kg/injection, schedule: Q03DX003 (ip), vehicle: saline",107 % of control
same,T/C,"endpoint: mean survival time, dose: 4.0 mg/kg/injection, schedule: Q04DX003 (ip), vehicle: saline",217 % of control
NC(=O)C(c1ccccc1)N1CCOCC1 (centres undefined),T/C,"endpoint: mean survival time, dose: 100.0 mg/kg/injection, schedule: Q01DX009 (ip), vehicle: saline",100 % of control
same,T/C,"endpoint: mean survival time, dose: 200.0 mg/kg/injection, schedule: Q01DX009 (ip), vehicle: saline",101 % of control
same,T/C,"endpoint: mean survival time, dose: 400.0 mg/kg/injection, schedule: Q01DX009 (ip), vehicle: saline",105 % of control
O=C1C=CC(=O)N1c1ccccc1N1C(=O)C=CC1=O,T/C,"endpoint: mean survival time, dose: 1.25 mg/kg/injection, schedule: Q01DX009 (ip), vehicle: Klucel (hydroxypropylcellulose) (HPC)",90 % of control
same,T/C,"endpoint: mean survival time, dose: 2.5 mg/kg/injection, schedule: Q01DX009 (ip), vehicle: Klucel (hydroxypropylcellulose) (HPC)",94 % of control
O=C1CN(c2ccc3ccccc3c2)NO1,T/C,[1],93 % of control
same,T/C,[2],93 % of control
Nc1cccc(N2N=C(C(=O)O)CC2=O)c1,T/C,[3],90 % of control
same,T/C,[1],103 % of control
same,T/C,[4],91 % of control
same,T/C,[2],103 % of control
same,T/C,[5],91 % of control
same,T/C,[6],101 % of control
CN(Cc1ccccc1)c1ccc2nc(N)nc(N)c2c1,T/C,[1],103 % of control
same,T/C,[2],110 % of control
C=C(NC(C)=O)C(=O)O,T/C,[7],96 % of control
same,T/C,[3],103 % of control
same,T/C,[8],97 % of control
same,T/C,[4],89 % of control
same,T/C,[9],97 % of control
C=CCSc1ccccn1,T/C,"endpoint: mean survival time, dose: 50.0 mg/kg/injection, schedule: Q01DX001 (ip), vehicle: carboxymethylcellulose (CMC)",94 % of control
same,T/C,[10],86 % of control
same,T/C,[11],88 % of control
same,T/C,[12],94 % of control
CCCCOC(=O)c1cnc[nH]c1=O,T/C,[7],95 % of control
same,T/C,[8],93 % of control
same,T/C,[9],96 % of control
CC(C)(C)OOC(=O)C1CCCCCCC1,T/C,[1],98 % of control
same,T/C,[2],96 % of control
same,T/C,[6],96 % of control
O=S(=O)(OCCCCCCOS(=O)(=O)c1cccnc1)c1cccnc1,T/C,"endpoint: mean survival time, dose: 10.0 mg/kg/injection, schedule: Q04DX002 (ip), vehicle: saline with Tween-80",107 % of control
C[n+]1c(-c2cc(C(F)(F)F)cc(C(F)(F)F)c2)c2cc(N)ccc2c2ccc(N)cc21,T/C,"endpoint: mean survival time, dose: 6.25 mg/kg/injection, schedule: Q01DX005 (ip), vehicle: saline with Tween-80",106 % of control
same,T/C,"endpoint: mean survival time, dose: 12.5 mg/kg/injection, schedule: Q01DX005 (ip), vehicle: saline with Tween-80",101 % of control
same,T/C,"endpoint: mean survival time, dose: 25.0 mg/kg/injection, schedule: Q01DX005 (ip), vehicle: saline with Tween-80",106 % of control
same,T/C,"endpoint: mean survival time, dose: 50.0 mg/kg/injection, schedule: Q01DX005 (ip), vehicle: saline with Tween-80",111 % of control
same,T/C,"endpoint: mean survival time, dose: 100.0 mg/kg/injection, schedule: Q01DX005 (ip), vehicle: saline with Tween-80",116 % of control
COC(=O)c1ccc(OCc2ccccc2)c([N+](=O)[O-])c1,T/C,"endpoint: mean survival time, dose: 100.0 mg/kg/injection, schedule: Q01DX001 (ip), vehicle: saline sonified",98 % of control
same,T/C,[3],105 % of control
same,T/C,"endpoint: mean survival time, dose: 200.0 mg/kg/injection, schedule: Q01DX001 (ip), vehicle: saline sonified",96 % of control
same,T/C,[4],97 % of control
same,T/C,"endpoint: mean survival time, dose: 400.0 mg/kg/injection, schedule: Q01DX001 (ip), vehicle: saline sonified",95 % of control
same,T/C,[5],105 % of control
OC(CF)CCl (centres undefined),T/C,"endpoint: mean survival time, dose: 50.0 mg/kg/injection, schedule: Q01DX009 (ip), vehicle: saline with Tween-80",96 % of control
same,T/C,"endpoint: mean survival time, dose: 100.0 mg/kg/injection, schedule: Q04DX003 (ip), vehicle: saline",100 % of control
same,T/C,"endpoint: mean survival time, dose: 200.0 mg/kg/injection, schedule: Q04DX003 (ip), vehicle: saline",121 % of control
CC(=O)Nc1ccc(Br)c(NC(C)=O)n1,T/C,[1],95 % of control
same,T/C,[2],98 % of control
same,T/C,[6],104 % of control
CC(=O)NCC(C)C,T/C,"endpoint: mean survival time, dose: 100.0 mg/kg/injection, schedule: Q01DX001 (ip), vehicle: saline",98 % of control
same,T/C,"endpoint: mean survival time, dose: 200.0 mg/kg/injection, schedule: Q01DX001 (ip), vehicle: saline",97 % of control
same,T/C,"endpoint: mean survival time, dose: 400.0 mg/kg/injection, schedule: Q01DX001 (ip), vehicle: saline",104 % of control
Cc1cc(NC(=S)SCc2ccc3c(c2)OCO3)ccc1Cl,T/C,"endpoint: median survival time, dose: 12.5 mg/kg/injection, schedule: Q01DX009 (ip), vehicle: Klucel (hydroxypropylcellulose) (HPC)",108 % of control
same,T/C,"endpoint: median survival time, dose: 25.0 mg/kg/injection, schedule: Q01DX009 (ip), vehicle: Klucel (hydroxypropylcellulose) (HPC)",100 % of control and 106 % of control and 110 % of control
same,T/C,"endpoint: median survival time, dose: 50.0 mg/kg/injection, schedule: Q01DX009 (ip), vehicle: Klucel (hydroxypropylcellulose) (HPC)",112 % of control and 113 % of control and 106 % of control
same,T/C,"endpoint: median survival time, dose: 100.0 mg/kg/injection, schedule: Q01DX009 (ip), vehicle: Klucel (hydroxypropylcellulose) (HPC)",114 % of control
same,T/C,"endpoint: median survival time, dose: 200.0 mg/kg/injection, schedule: Q01DX009 (ip), vehicle: Klucel (hydroxypropylcellulose) (HPC)",120 % of control
Nc1cc(C(F)(F)F)ccc1[N+](=O)[O-],T/C,[1],100 % of control
same,T/C,[2],100 % of control
same,T/C,[6],104 % of control
CS/C(N)=N\C(=S)Nc1ccccc1,T/C,[3],103 % of control
same,T/C,[4],103 % of control
same,T/C,[5],101 % of control
Cc1ccc(N2C(=O)CC(Sc3ccccc3N)C2=O)cc1Cl (centres undefined),T/C,[3],95 % of control
same,T/C,[4],103 % of control
same,T/C,[5],95 % of control
CC1=C[P+](c2ccccc2)(c2ccccc2)C=C(c2ccccc2)O1,T/C,"endpoint: median survival time, dose: 1.25 mg/kg/injection, schedule: Q01DX009 (ip), vehicle: suspension in saline",108 % of control
same,T/C,"endpoint: median survival time, dose: 2.5 mg/kg/injection, schedule: Q01DX009 (ip), vehicle: suspension in saline",111 % of control
same,T/C,"endpoint: median survival time, dose: 5.0 mg/kg/injection, schedule: Q01DX009 (ip), vehicle: suspension in saline",113 % of control
same,T/C,"endpoint: median survival time, dose: 10.0 mg/kg/injection, schedule: Q01DX009 (ip), vehicle: suspension in saline",123 % of control
same,T/C,"endpoint: median survival time, dose: 20.0 mg/kg/injection, schedule: Q01DX009 (ip), vehicle: suspension in saline",104 % of control
CCCCCCCCCCCCCCCCCCNC(=O)Nc1cccc(OC)c1,T/C,"endpoint: mean survival time, dose: 200.0 mg/kg/injection, schedule: Q04DX002 (ip), vehicle: saline with Tween-80",96 % of control
same,T/C,"endpoint: mean survival time, dose: 400.0 mg/kg/injection, schedule: Q04DX002 (ip), vehicle: saline with Tween-80",101 % of control
CC(=O)OCC1OC(n2ncc3c(Sc4c([N+](=O)[O-])ncn4C)ncnc32)C(OC(C)=O)C1OC(C)=O (centres undefined),T/C,"endpoint: mean survival time, dose: 25.0 mg/kg/injection, schedule: Q01DX009 (ip), vehicle: other",100 % of control
same,T/C,"endpoint: mean survival time, dose: 50.0 mg/kg/injection, schedule: Q01DX009 (ip), vehicle: other",102 % of control
same,T/C,"endpoint: mean survival time, dose: 100.0 mg/kg/injection, schedule: Q01DX009 (ip), vehicle: other",100 % of control
CCOC(=O)Nc1n[nH]c(=S)[nH]c1=O,T/C,[10],96 % of control
same,T/C,[11],100 % of control
same,T/C,[12],96 % of control
C/C(=N/N)c1ccc(Br)cc1,T/C,"endpoint: mean survival time, dose: 6.25 mg/kg/injection, schedule: Q01DX009 (ip), vehicle: saline with Tween-80",106 % of control
same,T/C,"endpoint: mean survival time, dose: 6.25 mg/kg/injection, schedule: Q04DX003 (ip), vehicle: saline with Tween-80",101 % of control
same,T/C,"endpoint: mean survival time, dose: 12.5 mg/kg/injection, schedule: Q01DX009 (ip), vehicle: saline with Tween-80",116 % of control
same,T/C,"endpoint: mean survival time, dose: 12.5 mg/kg/injection, schedule: Q04DX003 (ip), vehicle: saline with Tween-80",98 % of control
same,T/C,"endpoint: mean survival time, dose: 25.0 mg/kg/injection, schedule: Q01DX009 (ip), vehicle: saline with Tween-80",110 % of control
same,T/C,"endpoint: mean survival time, dose: 25.0 mg/kg/injection, schedule: Q04DX003 (ip), vehicle: saline with Tween-80",95 % of control
